From patent publication US20060160114A1, “Reagents and methods for predicting drug resistance” (Oncotech, Inc., priority 2004, published 2006)

Tested on: tumor cells from patient tumor samples
Assay: Extreme Drug Resistance (EDR) assay, tritiated thymidine incorporation in soft agarose culture
Type: cell-based, human
Settings: supratoxic dose 33 μM, positive (background) control group
Description: In the practice of this assay, tumor cells are taken from a cancer biopsy and exposed to cancer chemotherapeutics in culture. During the culture period, radioactive thymidine is added, which is incorporated into the DNA of growing and dividing cancer cells (which are thus resistant to the cytostatic or cytotoxic effects of the cancer chemotherapeutic). Tritiated thymidine is not incorporated into cells that are sensitive to the drug and reduce or suspend growth and division in response to the drug. […] By measuring the amount of radioactivity in a sample, the assay determines the relative resistance of an individual patient's cancer cells to a number of different chemotherapies. […]
The EDR assay is an agarose-based culture system, using tritiated thymidine incorporation to define in vitro drug response. […] The radioactivity trapped on the filters was counted with an LS-6500 scintillation Counter (Beckman, Fullerton, Calif.). […] Detectable radioactivity for this group was considered non-specific background related to debris trapping of tritiated thymidine on the filter. After subtracting background control values, percent control inhibition (PCI) of proliferation was determined by comparing thymidine incorporation by the treatment group with incorporation by the negative control group: PCI=100%×[1−(CPM treatment group/CPM control group)]. […]

Structure (SMILES): N.N.[Cl][Pt][Cl] [Cisplatin]
- cell death: 100%
